# Test results reported in US8222414B2, “Indole compounds as an inhibitor of cellular necrosis” (LG Life Sciences Ltd., priority 2007, dated 2012).
# Tested on: primary hepatocytes isolated from rats
# Assay: Cell protective effects against doxorubicin in hepatocytes (WST-1 cell viability)
# Type: cell-based
# Details: Hepatocyte; primary rat hepatocytes pretreated with compound for 30 min, then doxorubicin; viability by WST-1 after 24-48 h
# Method: Various endogenous/exogenous attacks on the cells trigger the mechanisms of cell death which is broadly classified into two types, i.e. apoptosis or necrosis. Using these cell death mechanisms, in the present experimental example, primacy hepatocytes isolated from rats were treated with drugs which were clinically shown to result in serious side-effects of hepatocyte toxicity or various chemicals which derive cell death, and the compounds synthesized in the Examples were estimated for their hepatocyte protective effects, after 24-48 h. The substances used to derive hepatocyte death include CCl4, ActD, H2O2, doxorubicin, anti-Fas Ab/Actinomycin D, acetaminophen, EtOH, CdCl2, palmitate, stearate, cyclophosphamide, terfenadine, diclofenac, simvastatin, and adefovir. Primary hepatocytes were isolated using the method of Seglen P O (Experimental Cell Research 74 (1972) pp 450-454). Briefly, hepatocytes were isolated according to the two-step collagenase perfusion method, and dead cells were removed by low speed (500 rpm) centrifugation for 10 min using percoll gradient (Kreamer B L etc, In Vitro Cellular & Developmental Biology 22 (1986) pp 201-211). During this step, the viability of cells was maintained 90% or above. The cells were suspended in HepatoZYME media (Gibco BRL), and the number of cells was counted. 1.5×10^4 cells in 100 μl were placed into the collagen-coated 96-well plate (BD biocoat), and adhered on the bottom for 3-4 h.
# In order to assess the hepatocyte protective effect, above adhered cells were pretreated with the Example compounds for 30 min. At this time, the concentration of the Example compounds were serially diluted by 2-fold or 3-fold over 5 steps starting from 30 uM, 10 uM or 1 uM depending on the experiments, and the final concentration of DMSO was adjusted to 0.2%. 30 min after the treatment by compounds, cells were treated by the substances deriving hepatocyte death or hepatotoxic drugs at the concentrations indicated in Table 1. After 24-48 h, the viability of cells was determined to estimate the hepatocyte protective effects. The viability of cells was determined using WST-1 (MK-400, […]) method by the absorbance at 440 nm. Hepatocyte protective effects of the Example compounds were represented by “EC50” which was calculated from measured values. “EC50” herein means the concentration of the compound at which 50% of maximum protective effect is observed in the experiment.
row,SMILES,EC50 [µM]
1,"N[C@H]1CCN(CC[C@H]2CSC(c3cc4cc(Oc5ccccc5)cc(NC5CCCC5)c4[nH]3)=N2)C1 [Example 238, (5-Phenoxy-2-{(S)-4-[(3S)-3-(amino)pyrrolidin-1-yl-ethyl]-4,5-dihydro-thiazol-2-yl}-1H-indol-7-yl)-cyclopentyl-amine]",0.33
2,"Cc1cc(NCC2CC2)c2[nH]c(C3=N[C@@H](CC(=O)O)CS3)cc2c1 [Example 21, [(S)-2-(5-methyl-7-cyclopropylmethylamino-1H-indol-2-yl)-4,5-dihydro-thiazol-4-yl]-acetic acid]",0.3
3,"CC(=O)N1CC[C@@H](Nc2cccc3cc(C4=N[C@H](CO)CS4)[nH]c23)C1 [Example 43, {(R)-2-[7-((3R)-1-acetylpyrrolidin-3-yl)amino-1H-indol-2-yl]-4,5-dihydro-1,3-thiazol-4-yl}-methanol]",1 to 10
4,"Cc1cc(NC2CCC(F)(F)CC2)c2[nH]c(C3=N[C@@H](CCN4CCNC(=O)C4)CS3)cc2c1 [Example 250, (5-Methyl-2-{(S)-4-[2-oxopiperazin-4-yl-ethyl]-4,5-dihydro-thiazol-2-yl}-1H-indol-7-yl)-4,4-difluorocyclohexyl-amine]",0.09
5,"CC1CSC(c2cc3cccc(NC4CCOCC4)c3[nH]2)=N1 (centres unmarked) [Example 32, (Tetrahydropyran-4-yl)-[2-(4,5-dihydro-4-methyl-thiazol-2-yl)-1H-indol-7-yl]-amine]",2.12
6,"Cc1cc(NC2CCC(F)(F)CC2)c2[nH]c(C3=N[C@@H](CCN4CCOCC4)CS3)cc2c1 [Example 251, (5-Methyl-2-{(S)-4-[morpholin-4-yl-ethyl]-4,5-dihydro-thiazol-2-yl}-1H-indol-7-yl)-4,4-difluorocyclohexyl-amine]",0.3
7,"OCc1csc(-c2cc3cccc(NC4CCCC4)c3[nH]2)n1 [Example 133, [2-(7-Cyclopentylamino-1H-indol-2-yl)-thiazol-4-yl]-methanol]",0.31
8,"Cc1cc(NC2CCOCC2)c2[nH]c(C3=N[C@H](CC(=O)O)CS3)cc2c1 [Example 93, [(R)-2-(5-methyl-7-(tetrahydropyran-4-yl)amino-1H-indol-2-yl)-4,5-dihydro-thiazol-4-yl]-acetic acid]",0.55
9,"CCCOc1cc(NC2CCCC2)c2[nH]c(C3=N[C@H](CC(=O)O)CS3)cc2c1 [Example 84, [(R)-2-(5-propyloxy-7-cyclopentylamino-1H-indol-2-yl)-4,5-dihydro-thiazol-4-yl]-acetic acid]",1.6
10,"O=C(O)C[C@@H]1CSC(c2cc3cc(Oc4ccccc4)cc(NCC4CCOCC4)c3[nH]2)=N1 [Example 15, [(R)-2-(5-phenoxy-7-(tetrahydropyran-4-yl)methylamino-1H-indol-2-yl)-4,5-dihydro-thiazol-4-yl]-acetic acid]",0.6
11,"OC[C@@H]1CSC(c2cc3cc(Oc4cccnc4)cc(NC4CCCC4)c3[nH]2)=N1 [Example 61, [(R)-2-(5-(pyridin-3-yl)oxy-7-cyclopentylamino-1H-indol-2-yl)-4,5-dihydro-thiazol-4-yl]-methanol]",0.78
12,"c1cc(NC2CCNCC2)c2[nH]c(C3=NCCS3)cc2c1 [Example 7, [2-(4,5-Dihydro-thiazol-2-yl)-1H-indol-7-yl]-piperidin-4-yl-amine]",1.17
13,"Cc1cc(NCC2CCCC2)c2[nH]c(C3=N[C@@H](CC(=O)O)CS3)cc2c1 [Example 23, [(S)-2-(5-methyl-7-cyclopentylmethylamino-1H-indol-2-yl)-4,5-dihydro-thiazol-4-yl]-acetic acid]",0.14
14,"CN(C)Cc1cc(NC2CCCC2)c2[nH]c(C3=N[C@H](CO)CS3)cc2c1 [Example 34, [(R)-2-(5-(dimethylamino)methyl-7-cyclopentylamino-1H-indol-2-yl)-4,5-dihydro-thiazol-4-yl]-methanol]",5.58
15,"CN(C)c1cccc(CC[C@H]2CSC(c3cc4cc(Cl)cc(NC5CCCC5)c4[nH]3)=N2)c1 [Example 177, (5-Chloro-2-{(S)-4-[2-(3-dimethylamino-phenyl)-ethyl]-4,5-dihydro-thiazol-2-yl}-1H-indol-7-yl)-cyclopentyl-amine]",> 1
16,"COC(=O)C[C@@H]1CSC(c2cc3cc(CN4CCCC4)cc(NC4CCCC4)c3[nH]2)=N1 [Example 40, [(R)-2-(5-(pyrrolidin-1-yl)methyl-7-cyclopentylamino-1H-indol-2-yl)-4,5-dihydro-thiazol-4-yl]-acetic acid methyl ester]",15.6
17,"CCOc1cc(NC2CCCC2)c2[nH]c(C3=N[C@@H](CC(=O)OC)CS3)cc2c1 [Example 46, [(S)-2-(5-ethoxy-7-cyclopentylamino-1H-indol-2-yl)-4,5-dihydro-thiazol-4-yl]-acetic acid methyl ester]",0.4
18,"OC[C@@H]1CSC(c2cc3cccc(NC4CCCC4)c3[nH]2)=N1 [Example 2, [(R)-2-(7-cyclopentylamino-1H-indol-2-yl)-4,5-dihydro-1,3-thiazol-4-yl]-methanol]",0.1
19,"Cc1cc(NCC2CCOCC2)c2[nH]c(C3=N[C@@H](CCN4CCNC(=O)C4)CS3)cc2c1 [Example 253, (5-Methyl-2-{(S)-4-[2-oxopiperazin-4-yl-ethyl]-4,5-dihydro-thiazol-2-yl}-1H-indol-7-yl)-(tetrahydropyran-4-yl)methyl-amine]",0.2
20,"Cc1cc(NC2CCCC2)c2[nH]c(-c3ncc(CO)s3)cc2c1 [Example 130, [2-(5-Methyl-7-cyclopentylamino-1H-indol-2-yl)-thiazol-5-yl]-methanol]",0.1
21,"O=C(O)C[C@H]1CSC(c2cc3cc(Cl)cc(NCC4CCOCC4)c3[nH]2)=N1 [Example 18, [(S)-2-(5-chloro-7-(tetrahydropyran-4-yl)methylamino-1H-indol-2-yl)-4,5-dihydro-thiazol-4-yl]-acetic acid]",2.42
22,"O=C(O)C[C@H]1CSC(c2cc3cc(Oc4ccccc4)cc(NC4CCOCC4)c3[nH]2)=N1 [Example 16, [(S)-2-(5-phenoxy-7-(tetrahydropyran-4-yl)amino-1H-indol-2-yl)-4,5-dihydro-thiazol-4-yl]-acetic acid]",1.29
23,"O=C(O)C[C@H]1CSC(c2cc3cccc(NC4CCOCC4)c3[nH]2)=N1 [Example 11, [(S)-2-(7-(tetrahydropyran-4-yl)amino-1H-indol-2-yl)-4,5-dihydro-thiazol-4-yl]-acetic acid]",2.8
24,"O=C(O)C[C@@H]1CSC(c2cc3cc(F)cc(NC4CCCC4)c3[nH]2)=N1 [Example 71, [(R)-2-(5-fluoro-7-cyclopentylamino-1H-indol-2-yl)-4,5-dihydro-thiazol-4-yl]-acetic acid]",1.1
25,"c1ccc(Oc2cc(NCC3CCOCC3)c3[nH]c(C4=N[C@@H](CCN5CCOCC5)CS4)cc3c2)cc1 [Example 247, (5-Phenoxy-2-{(S)-4-[morpholin-4-yl-ethyl]-4,5-dihydro-thiazol-2-yl}-1H-indol-7-yl)-(tetrahydropyran-4-yl)methyl-amine]",0.86
26,"c1ccc(Oc2cc(NC3CCCC3)c3[nH]c(C4=N[C@H](CCN5CCCC5)CS4)cc3c2)cc1 [Example 246, (5-Phenoxy-2-{(R)-4-[pyrrolidin-1-yl-ethyl]-4,5-dihydro-thiazol-2-yl}-1H-indol-7-yl)-cyclopentyl-amine]",0.35
27,"Cc1cc(NCC2CCOCC2)c2[nH]c(C3=N[C@@H](CCN4CCCC4C(N)=O)CS3)cc2c1 (stereo partly drawn) [Example 240, (5-Methyl-2-{(S)-4-[2-(aminocarbonyl)pyrrolidin-1-yl-ethyl]-4,5-dihydro-thiazol-2-yl}-1H-indol-7-yl)-(tetrahydropyran-4-yl)methyl-amine]",0.28

# Same assay, conditions: primary rat hepatocytes pretreated with compound for 30 min, then doxorubicin; viability by WST-1 after 24-48 h
row,SMILES,EC50 [µM]
1,O=C1CN(CC[C@H]2CSC(c3cc4cc(Oc5ccccc5)cc(NC5CCCC5)c4[nH]3)=N2)CCN1 [Example 233],0.27
2,"OCC[C@@H]1CSC(c2cc3cc(Cl)cc(NC4CCOCC4)c3[nH]2)=N1 [Example 67, [(R)-2-(5-chloro-7-(tetrahydropyran-4-yl)amino-1H-indol-2-yl)-4,5-dihydro-thiazol-4-yl]-ethanol]",> 1
3,CC(=O)N1CCN(CC[C@H]2CSC(c3cc4cc(Oc5ccccc5)cc(NC5CCCC5)c4[nH]3)=N2)CC1 [Example 239],0.83
4,"CC(C)(C)OC(=O)N1CCN(CC[C@H]2CSC(c3cc4cc(Oc5ccccc5)cc(NC5CCCC5)c4[nH]3)=N2)CC1 [Example 231, t-Butyl-(4-{2-[(S)-2-(5-phenoxy-7-cyclopentylamino)-1H-indol-2-yl)-4,5-dihydro-thiazol-4-yl]-ethyl}-piperazine-1-carboxylate]",0.2
5,"Fc1ccccc1N1CCN(CC[C@H]2CSC(c3cc4cc(Oc5ccccc5)cc(NC5CCCC5)c4[nH]3)=N2)CC1 [Example 236, (5-Phenoxy-2-{(S)-4-[(2-fluorophenyl)piperazine-ethyl]-4,5-dihydro-thiazol-2-yl}-1H-indol-7-yl)-cyclopentyl-amine]",0.16
